Assay results from US8618080B2, “Immunomodulatory compounds and treatment of diseases related to an overproduction of inflammatory cytokines” (OM Pharma, priority 2006, dated 2013).

Columns and labels:
[1] = test system: Limulus Amoebocyte Lysate; assay: Limulus Amoebocyte Lysate chromogenic test (LAL endotoxicity); type: biochemical
Description: Endotoxicity was determined first for OM-197-MP-AC and for OM-294-DP by the Limulus Amoebocyte Lysate chromogenic test (Chromogenic-LAL of Bio-Whittaker, kit n° 50-65OU).
The enzymatic reaction is carried out at 37° C. and the formation of the chromogen over time is measured at 405 nm. The time necessary to reach 0.2 units of D.O. is recorded and the endotoxic activity calculated in relation to a LPS standard (standard curve). The results are expressed in EU (Endotoxin Unit) in relation to a standardized preparation of E. coli LPS (1 EU corresponds to 0.08 ng equivalent LPS).

[2] = test system: LACK-sensitised and -challenged BALB/c ByJ mice; assay: LACK-induced allergic asthma model, other routes of administration; type: in vivo
Description: 43 females BALB/c ByJ mice 6-week old were purchased from the Centre d'Elevage Janvier (CERJ, Le Genest-St-Isle, France). All the mice were sensitised by 2 i.p. injections of 10 μg LACK protein precipitated in 2 mg of Alum (PerBio Science France SAS, Brebières, France) at days 1 and 8 (Julia et al., 2002).
OM-197-MP-AC was given from day 0 to day 12 as described below. All the mice were challenged from day 16 to day 20 with either a solution of LACK (0.15%) or with PBS as indicated below.
Experimental groups were the following: • Group A: untreated, LACK-sensitised and PBS-challenged mice (3 mice) • Group B: untreated LACK-sensitised and -challenged mice (7 mice) • Group C: i.p. OM-197-MP-AC-treated, LACK-sensitised and -challenged mice (5 mice) • Group D: i.g. OM-197-MP-AC-treated, LACK-sensitised and -challenged mice (7 mice) • Group E: s.c. OM-197-MP-AC-treated, LACK-sensitised and -challenged mice (7 mice). • Group F: i.n. OM-197-MP-AC-treated, LACK-sensitised and -challenged mice (7 mice) • Group G: aerosols OM-197-MP-AC-treated, LACK-sensitised and -challenged mice (7 mice)
Mice of groups C, D, E, and G were treated on days: 0, 2, 3, 4, 7, 9, 10, 11, whereas mice of group F (intranasal route) were only treated on days 0, 4, 7, and 11.
Mice of groups C and E were treated i.p. and s.c. respectively with 1 mg/Kg (20 μg per mouse) of OM-197-MP-AC.
Mice of group D were treated intragastrically with 50 mg/Kg (1 mg per mouse) of OM-197-MP-AC.
Mice of group F were treated i.n. with 20[…]μg of OM-197-MP-AC in a volume of 20 μl (OM-197-MP-AC at 2 mg/ml, 10[…]μl/nostril.)
Mice of group G received aerosols of a solution of OM-197-MP-AC at 0.2% (2 mg/ml) for 10 minutes.
All the mice were bled by heart puncture 2 days after the last aerosol. Total IgE were quantified by ELISA using rat EM-95 anti-IgE mAbs as coating antibody and rat anti-IgE mAbs coupled to biotin as second antibody as described elsewhere (Julia et al., 2002).
Individual mice were bled and a canula was inserted into their trachea. Lungs were washed 3 times with 1 ml of warmed PBS. Cells were washed with PBS, resuspended in 300 μl, and counted using a Burker-Türk chamber. For differential BAL cell counts, cytospin preparations were made and stained with Wright/Giemsa.

Structure (SMILES): CCCCCCCCCCCC(=O)O[C@H](CCCCCCCCCCC)CC(=O)N[C@@H](CCOP(=O)(O)O)C(=O)NCCC[C@H](COC(=O)CCCCCN)NC(=O)C[C@H](O)CCCCCCCCCCC [OM-197-MP-AC, (3S, 9R)-3-[(R)-3-dodecanoyloxytetradecanoylamino]-4-oxo-5-aza-9-[(R)-3-hydroxytetradecanoylamino]-decan-1, 10-diol 1-dihydrogenophosphate 10-(6-aminohexanoate)]
- Limulus activity in the chromogenic LAL assay [1]: very little or no Limulus activity
- Eosinophils in BAL ([2]; aerosols of 0.2% solution, 10 minutes): same tendency as i.n. treated animals
- BAL cell contents versus untreated mice ([2]; i.g. 50 mg/Kg, unformulated): did not yield differences
- Eosinophil frequencies and numbers in BAL ([2]; i.n. 20 μg per mouse): reduced by half
- Total serum IgE ([2]; i.n. 20 μg per mouse): reduced titers
- Eosinophils in BAL ([2]; i.p. 1 mg/Kg): both reduced percentage and reduced numbers
- Total IgE ([2]; i.p. 1 mg/Kg): reduced amounts
- BAL cell contents versus untreated mice ([2]; s.c. 1 mg/Kg): did not yield differences
